tested on: Pieris rapae; test: Antifeeding activity against fifth-instar larvae Pieris rapae in compound treated Brassica oleracea L leaf disk at 500 ppm measured after 24 hr relative to control; assay type: functional

First: C=C1[C@@H]([C@]2(C)[C@H]3CC(=O)O[C@@]3(C)CO[C@@H]2CC(=O)O)[C@@H](O)[C@H](OC(=O)C(O)C(C)C)[C@@]2(C)[C@H](C3=CC(O)OC3=O)[C@@H](O)[C@H]3O[C@]132 (stereo partly specified) [DYSOXYLUMIC ACID B]
Second: C=C1[C@@H]([C@]2(C)[C@H]3CC(=O)O[C@@]3(C)CO[C@@H]2CC(=O)O)[C@@H](O)[C@H](OC(=O)C(O)C(C)C)[C@@]2(C)[C@H](c3ccoc3)[C@@H](O)[C@H]3O[C@]132 (stereo partly specified) [DYSOXYLUMIC ACID A]
The FDI of the first is lower: 64.1% for the first, 78.7% for the second.

Going from CC(C)C(O)C(=O)O[C@H]1[C@H](O)[C@H]2C(=C3[C@H](O)[C@H](O)[C@@H](c4ccoc4)[C@@]31C)COC(=O)C[C@@H](OC(=O)C(O)C(C)C)[C@@]2(C)[C@H]1CC(=O)OC[C@@]1(C)O (stereo partly specified) [DYSOXYLUMOLIDE B] to CC(=O)O[C@@H]1[C@H]2C(=C3[C@H](O)[C@H](O)[C@@H](c4ccoc4)[C@]3(C)[C@H]1OC(=O)C(O)C(C)C)COC(=O)C[C@@H](OC(=O)C(O)C(C)C)[C@@]2(C)[C@@H](CC(=O)O)C(C)(O)CO (stereo partly specified) [DYSOXYLUMIC ACID D], the FDI rises from 28.3% to 29.5%.

Compared with C=C1[C@@H]([C@@]2(C)[C@@H](OC(C)=O)CC(=O)O[C@](C)(COC(C)=O)[C@@H]2CC(=O)OC)[C@@H](OC=O)[C@H](OC(=O)[C@H](O)C(C)C)[C@@]2(C)[C@@H](c3ccoc3)[C@@H](OC(=O)[C@@H](C)CC)[C@H]3O[C@]132 [DYSOXYLUMINS A], C=C1[C@@H]([C@@]2(C)[C@@H](OC(C)=O)CC(=O)O[C@](C)(COC(C)=O)[C@@H]2CC(=O)OC)[C@@H](OC=O)[C@H](OC(=O)[C@H](O)C(C)C)[C@@]2(C)[C@@H](c3ccoc3)[C@@H](OC(=O)[C@H](O)C(C)C)[C@H]3O[C@]132 [DYSOXYLUMINS C] is higher in FDI: 73.8% for the first, 74.9% for the second.

Going from C=C1[C@@H]2[C@@H](O[C@@H](CC(=O)O)[C@@]2(C)[C@H]2CC(=O)O[C@]2(C)CO)[C@H](OC(=O)C(O)C(C)C)[C@@]2(C)[C@H](c3ccoc3)[C@@H](O)[C@H]3O[C@]132 (stereo partly specified) [DYSOXYLUMIC ACID C] to C=C1[C@@H]2[C@@H](O[C@H]3CC(=O)O[C@@]4(C)COC(=O)C[C@@H]4[C@]32C)[C@H](OC(=O)C(O)C(C)C)[C@@]2(C)[C@H](c3ccoc3)[C@@H](OC(=O)C(O)C(C)C)[C@H]3O[C@]132 (stereo partly specified) [DYSOXYLUMOLIDE A], the FDI falls from 59.4% to 27.9%.

Going from C=C1[C@@H]([C@@]2(C)[C@@H](OC(C)=O)CC(=O)O[C@](C)(COC(C)=O)[C@@H]2CC(=O)OC)[C@@H](OC=O)[C@H](OC(=O)[C@H](O)C(C)C)[C@@]2(C)[C@@H](c3ccoc3)[C@@H](OC(=O)[C@H](OC(C)=O)C(C)C)[C@H]3O[C@]132 [DYSOXYLUMINS B] to CC(C)C(O)C(=O)OC(C(=O)O[C@@H]1[C@H](O)[C@@H]2[C@](C)(/C=C\C(=O)OC[C@@]2(C)O)[C@H]2CC[C@@]3(C)[C@H](c4ccoc4)OC(=O)[C@H]4O[C@]43[C@]12C)C(C)C (stereo partly specified) [DYSOXYLUMOLIDE C], the FDI falls from 77.4% to 22.4%.

In the case of C/C=C(\C)C(=O)O[C@H]1C[C@@H](OC(C)=O)[C@@]2(C(=O)OC)CO[C@H]3[C@@H](O)[C@@](C)([C@]45O[C@@]4(C)[C@@H]4C[C@H]5O[C@@H]5OC=C[C@@]54O)[C@H]4[C@]1(CO[C@]4(O)C(=O)OC)[C@@H]32 [AZADIRACHTIN A], the FDI is reported as 100%.

Source: ChEMBL document CHEMBL3045995, “Novel antifeeding limonoids from Dysoxylum hainanense” (2002)
